# US20040251215A1, “Method for killing organicsms in the course of conveying ballast water in ships and apparatus thereof” (priority 2003, published 2004)
# Columns and labels:
# [1] = Decomposition of residual hydroxyl radicals; assay type: physicochemical; details: treated ballast water
# Procedure: The residual hydroxyl radicals were decomposed after 20 min into H2O, O2 and the like and there was no any residual chemical reagent left. Therefore the method for treating ballast water by using hydroxyl radicals solution is a green effective method.
# Bacteria = test: Test of elimination of bacteria in seawater (ballast water) by hydroxyl radical solution; assay type: cell-based; details: OH concentration 0.63 mg/L
# From the text: (§1) Free radical generator of the present invention was made of anode electrode 22, cathode electrode 21, dielectric substance layer 24 and septum 23. Strong electric field of 250-600 Td was formed between the anode electrode and cathode electrode. […] The undissolved free radicals were removed by residual free radical treater 13. High frequency electric source made from transformer 5, invertor 6 and controller 7 was used to supply electric source to free radical generator 3. Free radical concentration measuring apparatus 4 was used to measure the concentration of free radical produced while the hydroxyl radical solution concentration analyzer 14 was used to measure the concentration of hydroxyl radical solution. Untreated ballast water was suctioned by pump 19 into conveying pipe and filtered by filter 16 (FIG. 2). A part of them was taken out and was processed by free radical generating unit 15 into hydroxyl radical solution which was then mixed in liquid-liquid mixer 20 with ballast water conveyed in pipe and flowed through flow meter 17 and valve 18. The effectiveness of the elimination of single cell alga, protozoans and bacteria was illustrated in Table 1.
# single cell alga = test: Test of elimination of single cell alga in seawater (ballast water) by hydroxyl radical solution; assay type: cell-based; details: OH concentration 0.63 mg/L
# From the text: as §1
# [2] = system: bacteria, single cell alga, protozoan, spore and vibrio; test: Time and concentration needed to kill microorganisms in ballast water by hydroxyl radical; assay type: cell-based
# From the text: as §1
# The time necessary for elimination of single cell alga, protozoan, bacteria and the like was extremely short. […]
# Protozoan = test: Test of elimination of protozoan in seawater (ballast water) by hydroxyl radical solution; assay type: cell-based; details: OH concentration 0.63 mg/L
# From the text: as §1
substance,measurement,setting,value
hydroxyl radical [OH],"time after which residual hydroxyl radicals were decomposed into H2O, O2",[1],20 min
same,Lethality,Bacteria,100%
same,Microorganism concentration,Bacteria; untreated 1.9 × 10^5,not detectable
same,Lethality,single cell alga,100%
same,Microorganism concentration,single cell alga; untreated 6.0 × 10^4,not detectable
same,time needed for elimination of microorganism,"[2]; from curve of time against lethality, FIG. 4",about 4 s
same,concentration at which killing is feasible,"[2]; single cell alga, protozoan, spore, bacteria, vibrio in ballast water",0.6 to 0.7 mg/L
same,Lethality,Protozoan,100%
same,Microorganism concentration,Protozoan; untreated 4.4 × 10^4,not detectable
